Measurements taken from EPA's ToxRefDB 2.

Experiments:
rabbit [1] = conditions: Prenatal developmental toxicity study, new zealand white, Oral, Gavage/Intubation, dose end: 18 GD, group: maternal
rat [2] = conditions: Prenatal developmental toxicity study, sprague dawley, Oral, Gavage/Intubation, dose end: 15 GD, group: maternal
rat [3] = conditions: Sub-acute repeat dose toxicity, fischer, Oral, Water, dose end: 14 day, group: systemic
rat [4] = conditions: Subchronic oral toxicity in rodents, fischer, Water, dose end: 13 week, group: systemic
rat [5] = conditions: Combined chronic toxicity/carcinogenicity; fischer; Inhalation; Whole-Body; dose end: 26 month; group: systemic; systemic / pathology microscopic / spleen / congestion + systemic / pathology microscopic / eye / degeneration + systemic / pathology …
mouse [6] = conditions: Combined chronic toxicity/carcinogenicity; cd1; Inhalation; Whole-Body; dose end: 18 month; group: systemic; systemic / pathology microscopic / nose / [other] + systemic / pathology microscopic / nose / degeneration + systemic / pathology …
rat [7] = conditions: Neurotoxicity screening battery; sprague dawley; Oral; Gavage/Intubation; dose end: 13 week; group: cannot be grouped; systemic / hematology / [other] / [other] + systemic / hematology / heinz body / heinz body + systemic / hematology / leukocyte (wbc) count …
mouse [8] = conditions: Subchronic oral toxicity in rodents, b6c3f1, Water, dose end: 13 week, group: systemic
rabbit [9] = conditions: Prenatal developmental toxicity study, new zealand white, Oral, Gavage/Intubation, dose end: 18 GD, group: maternal; remark: listed apart in the source
rat [10] = conditions: Prenatal developmental toxicity study, sprague dawley, Oral, Gavage/Intubation, dose end: 15 GD, group: maternal; remark: listed apart in the source
rat [11] = conditions: Multigenerational reproductive toxicity study, sprague dawley, Oral, Gavage/Intubation, dose end: 2 generation, group: parental
mouse [12] = conditions: Sub-acute repeat dose toxicity, b6c3f1, Oral, Water, dose end: 14 day, group: systemic
[13] = reproductive / reproductive performance / aborted / aborted + reproductive / reproductive performance / resorptions / resorptions + systemic…
[14] = systemic / in life observation / body weight / body weight + systemic / in life observation / body weight / body weight gain + systemic / in…
[15] = systemic / pathology gross / spleen / enlarged
[16] = systemic / in life observation / body weight / body weight
[17] = systemic / in life observation / body weight / body weight + systemic / in life observation / water consumption / water consumption + …
[18] = systemic / hematology / erythrocyte (rbc) count differential / erythrocyte (rbc) + systemic / hematology / hematocrit (hct) / hematocrit (…
[19] = systemic / hematology / erythrocyte (rbc) count differential / erythrocyte (rbc) + systemic / hematology / hemoglobin (hgb) / hemoglobin (…
[20] = systemic / pathology microscopic / nose / degeneration + systemic / pathology microscopic / spleen / hematopoietic cell proliferation + …
[21] = systemic / hematology / methemoglobin / methemoglobin + systemic / hematology / reticulocyte / reticulocyte
[22] = systemic / hematology / methemoglobin / methemoglobin + systemic / hematology / reticulocyte / reticulocyte + systemic / in life observation…
[23] = systemic / pathology microscopic / liver / hematopoietic cell proliferation + systemic / pathology microscopic / liver / hemosiderosis + …
[24] = systemic / in life observation / body weight / body weight + systemic / in life observation / water consumption / water consumption

Molecule CCC(C)=NO [2-Butanone oxime] has an LOAEL (rabbit [1]; [13]) of over 40 mg/kg/day, an NEL (rabbit [1]; [13]) of 14 mg/kg/day and an NOAEL (rabbit [1]; [13]) of at least 40 mg/kg/day. The LEL (rabbit [1]; systemic / in life observation / body weight / body weight gain + systemic / in life observation / food consumption / food consumption) was 24 mg/kg/day, the LOAEL (rat [2]; [14]) was over 600 mg/kg/day and the NOAEL (rat [2]; [14]) was at least 600 mg/kg/day. For the same molecule, the LEL (rat [2]; [15]) was 60 mg/kg/day, the NEL (rat [2]; [15]) was under 60 mg/kg/day and the LOAEL (rat [3]; [16]) was 280 mg/kg/day. For the same molecule, the NEL (rat [3]; [17]) was 70 mg/kg/day, the NOAEL (rat [3]; [17]) was 130 mg/kg/day and the LEL (rat [3]; systemic / in life observation / water consumption / water consumption + systemic / organ weight / spleen / absolute + systemic / organ …) was 130 mg/kg/day. For the same molecule, the LOAEL (rat [4]; [18]) was 50 mg/kg/day, the NOAEL (rat [4]; [18]) was 25 mg/kg/day and the LEL (rat [4]; [19]) was 25 mg/kg/day. It also gave an NEL (rat [4]; [19]) of under 25 mg/kg/day, an LEL (rat [5]) of 15 ppm and an LOAEL (rat [5]) of over 375 ppm. For the same molecule, the NEL (rat [5]) was under 15 ppm, the NOAEL (rat [5]) was at least 375 ppm and the LEL (mouse [6]) was 15 ppm. The LOAEL (mouse [6]) was over 375 ppm, the NEL (mouse [6]) was under 15 ppm and the NOAEL (mouse [6]) was at least 375 ppm. For the same molecule, the LEL (rat [7]) was 40 mg/kg/day, the LOAEL (rat [7]) was over 400 mg/kg/day and the NEL (rat [7]) was under 40 mg/kg/day. It also gave an NOAEL (rat [7]) of at least 400 mg/kg/day, an LOAEL (mouse [8]; systemic / pathology microscopic / nose / degeneration + systemic / pathology microscopic / spleen / hematopoietic cell proliferation) of 755 mg/kg/day and an NEL (mouse [8]; [20]) of 110 mg/kg/day. It also gave an NOAEL (mouse [8]; [20]) of 515 mg/kg/day, an LEL (mouse [8]; systemic / pathology microscopic / urinary bladder / hyperplasia) of 200 mg/kg/day and an LOAEL (rabbit [9]; [13]) of over 80 mg/kg/day. For the same molecule, the NOAEL (rabbit [9]; [13]) was at least 80 mg/kg/day, the LEL (rabbit [9]; [21]) was 10 mg/kg/day and the NEL (rabbit [9]; [21]) was under 10 mg/kg/day. It also gave an LEL (rat [10]; [21]) of 25 mg/kg/day, an NEL (rat [10]; [21]) of under 25 mg/kg/day and an LOAEL (rat [10]; [22]) of over 400 mg/kg/day. For the same molecule, the NOAEL (rat [10]; [22]) was at least 400 mg/kg/day, the LOAEL (rat [11]; [18]) was over 200 mg/kg/day and the NOAEL (rat [11]; [18]) was at least 200 mg/kg/day. It also gave an LEL (rat [11]; [23]) of 10 mg/kg/day, an NEL (rat [11]; [23]) of under 10 mg/kg/day and an LOAEL (mouse [12]; [16]) of 475 mg/kg/day. It also gave an LEL (mouse [12]; [24]) of 475 mg/kg/day, an NEL (mouse [12]; [24]) of 300 mg/kg/day and an NOAEL (mouse [12]; [24]) of 300 mg/kg/day.
